From ChEMBL document CHEMBL3638540, “Pyrolinone derivative and pharmaceutical composition comprising the same” (2013)

molecular target: T1, P2X purinoceptor 3 (Homo sapiens, UniProt P56373); experiment: Inhibiton Assay: Inhibition assay using human P2X3 receptor gene (GeneBank accession number Y07683).
T1 sequence (P56373 whole entry): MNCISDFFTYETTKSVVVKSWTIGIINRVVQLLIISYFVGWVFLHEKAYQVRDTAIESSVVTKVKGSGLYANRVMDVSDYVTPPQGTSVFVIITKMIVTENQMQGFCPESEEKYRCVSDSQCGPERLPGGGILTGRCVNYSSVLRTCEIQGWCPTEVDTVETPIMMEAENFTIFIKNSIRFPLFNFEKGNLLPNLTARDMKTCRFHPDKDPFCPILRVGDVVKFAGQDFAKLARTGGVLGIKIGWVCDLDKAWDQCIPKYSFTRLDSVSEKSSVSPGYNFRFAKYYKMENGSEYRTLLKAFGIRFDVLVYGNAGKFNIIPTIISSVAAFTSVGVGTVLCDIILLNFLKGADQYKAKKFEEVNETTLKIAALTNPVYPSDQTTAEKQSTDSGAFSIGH

| IC50 [nM] | Compound |
| --- | --- |
| 238 | COc1ccccc1C1c2c(n[nH]c2C(C)(C)C)C(=O)N1c1ccc(Br)cc1 (stereo not drawn) |
| 811 | COc1ncccc1C1c2c(n[nH]c2C(C)(C)C)C(=O)N1c1ccc(Br)cc1 (stereo not drawn) |
| 473 | COc1ccccc1C1c2c(n[nH]c2C(C)(C)CO)C(=O)N1c1ccc(Br)cc1 (stereo not drawn) |
